“Also recorded” adds a separate entry of the source.

In one test the test system is LNCaP95 cells. The test can be described thus: Antiproliferative assay (resazurin, 72 h) in LNCaP95 cells. It counts as cell-based. The note with it: LNCaP-95, 72 h, read-out: IC50 (μM) LNCaP95. How it is done:
(§1) 22Rv1 cells were obtained from ATCC. LNCaP95 cells were provided by Dr. Yan Dong’s laboratory (Tulane University School of Medicine). LNCaP95 cells were maintained in an RPMI1640 medium with charcoal-stripped serum (CSS). 22Rv1 cells were maintained in an RPMI1640 medium with 10% FBS. Cells were seeded in 96-well plates (5 × 10^3 cells/well) containing a 50 μL growth medium for 24 h. After medium removal, a 100 μL fresh medium containing individual compounds at different concentrations was added to each well and incubated at 37 °C for 72 h. Then, 20 μL of resazurin was added for 2 h before recording fluorescence at 560 nm (excitation) and 590 nm (emission) using a Victor microtiter plate fluorometer (Perkin-Elmer, Waltham, MA, USA).
In general terms: The colour change of resazurin is a common sign of viable cells or microbes.
For `O=C(Nc1ccc([N+](=O)[O-])c(Cl)c1)c1cc(Cl)ccc1O` [A14], the IC50 stood at 1.67 ± 0.25 µM.

The same test, now with this note: LNCaP-95; antiproliferation, LNCaP95, 72 h, mean of three independent experiments; read-out: IC50 (μM) LNCaP95.
For `O=C(Nc1ccc([N+](=O)[O-])c(C(F)(F)F)c1)c1cccc(Cl)c1` [C3], the IC50 turned out to be 0.33 ± 0.081 µM.
On to `N#Cc1cc(C(F)(F)F)ccc1NC(=O)c1cc(F)ccc1O` [B7], for which the IC50 came to 4.38 ± 1.33 µM.
Consider `COc1cc([N+](=O)[O-])ccc1NC(=O)c1cc(Cl)ccc1O` [A13], for which the IC50 is 0.444 ± 0.119 µM.
Still for that read-out and setting: the result for `O=C(Nc1ccc(C(F)(F)F)c(C(F)(F)F)c1)c1cc(Br)ccc1O` [B4] reads 0.213 ± 0.042 µM; that for `COc1cc([N+](=O)[O-])ccc1NC(=O)c1ccc(Cl)cc1O` [A3], 2.48 ± 0.702 µM.
`O=C(Nc1ccc([N+](=O)[O-])cc1Cl)c1cc(Cl)ccc1O` [Niclosamide, reference compound]: the IC50 was found to be 0.372 ± 0.074 µM.
For `O=C(Nc1ccc([N+](=O)[O-])c(F)c1)c1cc(Cl)ccc1O` [A15], the IC50 was found to be 0.755 ± 0.221 µM.
With `CC(=O)Oc1ccc(Cl)cc1C(=O)Nc1ccc([N+](=O)[O-])cc1Cl` [C7], the IC50 was 0.386 ± 0.098 µM.
With `O=C(Nc1ccc(C(F)(F)F)cc1F)c1cc(F)ccc1O` [B6], the IC50 was 0.185 ± 0.041 µM.
For `O=C(Nc1ccc([N+](=O)[O-])c(Cl)c1)c1ccc(Cl)cc1O` [A4], the IC50 came to 3.43 ± 0.49 µM.
On to `O=C(Nc1ccc([N+](=O)[O-])cc1F)c1cc(Cl)ccc1O` [A10], for which the IC50 was 0.373 ± 0.069 µM.
Turning to `O=C(Nc1ccc([N+](=O)[O-])c(C(F)(F)F)c1)c1cccc(Br)c1` [C5], the IC50 is 0.536 ± 0.201 µM.
Turning to `O=C(Nc1ccc([N+](=O)[O-])cc1)c1cc(Cl)ccc1O` [A9], the IC50 came out at 0.812 ± 0.374 µM.
With `O=C(Nc1ccc(C(F)(F)F)cc1Cl)c1cc(F)ccc1O` [B5], the IC50 is 0.384 ± 0.088 µM.
For `O=C(Nc1ccc([N+](=O)[O-])cc1F)c1ccc(Cl)cc1O` [A1], the IC50 was 1.19 ± 0.53 µM.
Still for that read-out and setting: the result for `O=C(Nc1ccc([N+](=O)[O-])c(C(F)(F)F)c1)c1cc(Cl)ccc1O` [A16] reads 0.693 ± 0.314 µM; that for `O=C(Nc1ccc([N+](=O)[O-])cc1Cl)c1cc(Cl)ccc1OS(=O)(=O)C(F)(F)F` [C8], 0.196 ± 0.064 µM.

The next test deals with 22RV1 cells. Put plainly: Antiproliferative assay (resazurin, 72 h) in 22RV1 cells. It counts as cell-based. As to conditions: Homo sapiens, 22Rv1, 72 h, read-out: IC50 (μM) 22RV1. How it is done: as §1
As to `O=C(Nc1ccc([N+](=O)[O-])c(Cl)c1)c1cc(Cl)ccc1O` [A14], the IC50 turned out to be 0.386 ± 0.171 µM.

The same test, now with this note: Homo sapiens, 22Rv1, read-out: Inhibitory Rate 22RV1 @1.0 μM.
For `O=C(Nc1ccc([N+](=O)[O-])c(Cl)c1)c1cc(Cl)ccc1O` [A14], the inhibition at 1 µM is 51.3%.

Still in this test, the particulars now being: Homo sapiens, 22Rv1, read-out: Obs pIC50 (converted).
As for `O=C(Nc1ccc([N+](=O)[O-])c(Cl)c1)c1cc(Cl)ccc1O` [A14], the IC50 is 0.386 µM.

The test is the same for the next values; noted with them: Homo sapiens; 22RV1, 1.0 μM; read-out: Inhibitory Rate 22RV1 @1.0 μM.
Turning to `O=C(Nc1ccc([N+](=O)[O-])c(C(F)(F)F)c1)c1cccc(Cl)c1` [C3], the inhibition at 1 µM was 43.7%.
On the same count and under the same terms, under `N#Cc1cc(C(F)(F)F)ccc1NC(=O)c1cc(F)ccc1O` [B7] stands 42.3%; under `COc1cc([N+](=O)[O-])ccc1NC(=O)c1cc(Cl)ccc1O` [A13], 57.3%; under `O=C(Nc1ccc(C(F)(F)F)c(C(F)(F)F)c1)c1cc(Br)ccc1O` [B4], 53.1%.
For the compound `COc1cc([N+](=O)[O-])ccc1NC(=O)c1ccc(Cl)cc1O` [A3], the inhibition at 1 µM came out at 50%.
Turning to `O=C(Nc1ccc([N+](=O)[O-])cc1Cl)c1cc(Cl)ccc1O` [Niclosamide, reference compound], the inhibition at 1 µM came out at 55.8%.
`O=C(Nc1ccc([N+](=O)[O-])c(F)c1)c1cc(Cl)ccc1O` [A15]: the inhibition at 1 µM came to 55.4%.
In the case of `CC(=O)Oc1ccc(Cl)cc1C(=O)Nc1ccc([N+](=O)[O-])cc1Cl` [C7], the inhibition at 1 µM was 42.9%.
`O=C(Nc1ccc(C(F)(F)F)cc1F)c1cc(F)ccc1O` [B6]: the inhibition at 1 µM is 62.5%.
Regarding `O=C(Nc1ccc([N+](=O)[O-])c(Cl)c1)c1ccc(Cl)cc1O` [A4], the inhibition at 1 µM was found to be 47.5%.
As to `O=C(Nc1ccc([N+](=O)[O-])cc1F)c1cc(Cl)ccc1O` [A10], the inhibition at 1 µM amounted to 56%.
For `O=C(Nc1ccc([N+](=O)[O-])c(C(F)(F)F)c1)c1cccc(Br)c1` [C5], the inhibition at 1 µM turned out to be 58.3%.
`O=C(Nc1ccc([N+](=O)[O-])cc1)c1cc(Cl)ccc1O` [A9]: the inhibition at 1 µM was 44.9%.
As for `O=C(Nc1ccc(C(F)(F)F)cc1Cl)c1cc(F)ccc1O` [B5], the inhibition at 1 µM was found to be 59.2%.
The same measure, in the same setting: under `O=C(Nc1ccc([N+](=O)[O-])cc1F)c1ccc(Cl)cc1O` [A1] stands 54.3%; under `O=C(Nc1ccc([N+](=O)[O-])c(C(F)(F)F)c1)c1cc(Cl)ccc1O` [A16], 47.5%.
Still for that read-out and setting: under `O=C(Nc1ccc([N+](=O)[O-])cc1Cl)c1cc(Cl)ccc1OS(=O)(=O)C(F)(F)F` [C8] stands 59.2%.

The same test, now with this note: Homo sapiens; antiproliferation, 22RV1, 72 h, mean of three independent experiments; read-out: IC50 (μM) 22RV1.
As for `O=C(Nc1ccc([N+](=O)[O-])c(C(F)(F)F)c1)c1cccc(Cl)c1` [C3], the IC50 came to 0.557 ± 0.127 µM.
Consider `N#Cc1cc(C(F)(F)F)ccc1NC(=O)c1cc(F)ccc1O` [B7], for which the IC50 was found to be 7.92 ± 2.56 µM.
`COc1cc([N+](=O)[O-])ccc1NC(=O)c1cc(Cl)ccc1O` [A13]: the IC50 stood at 0.158 ± 0.044 µM.
With `O=C(Nc1ccc(C(F)(F)F)c(C(F)(F)F)c1)c1cc(Br)ccc1O` [B4], the IC50 amounted to 0.307 ± 0.059 µM.
Same read-out and setting: the result for `COc1cc([N+](=O)[O-])ccc1NC(=O)c1ccc(Cl)cc1O` [A3] reads 0.714 ± 0.303 µM.
In the case of `O=C(Nc1ccc([N+](=O)[O-])cc1Cl)c1cc(Cl)ccc1O` [Niclosamide, reference compound], the IC50 came to 0.284 ± 0.059 µM.
For the compound `O=C(Nc1ccc([N+](=O)[O-])c(F)c1)c1cc(Cl)ccc1O` [A15], the IC50 worked out at 0.28 ± 0.092 µM.
Consider `CC(=O)Oc1ccc(Cl)cc1C(=O)Nc1ccc([N+](=O)[O-])cc1Cl` [C7], for which the IC50 was 0.481 ± 0.113 µM.
Consider `O=C(Nc1ccc(C(F)(F)F)cc1F)c1cc(F)ccc1O` [B6], for which the IC50 came to 0.196 ± 0.032 µM.
As for `O=C(Nc1ccc([N+](=O)[O-])c(Cl)c1)c1ccc(Cl)cc1O` [A4], the IC50 is 0.713 ± 0.178 µM.
Consider `O=C(Nc1ccc([N+](=O)[O-])cc1F)c1cc(Cl)ccc1O` [A10], for which the IC50 amounted to 0.271 ± 0.125 µM.
Still for that read-out and setting: the result for `O=C(Nc1ccc([N+](=O)[O-])c(C(F)(F)F)c1)c1cccc(Br)c1` [C5] reads 0.306 ± 0.058 µM.
Still for that read-out and setting: under `O=C(Nc1ccc([N+](=O)[O-])cc1)c1cc(Cl)ccc1O` [A9] stands 0.581 ± 0.289 µM; under `O=C(Nc1ccc(C(F)(F)F)cc1Cl)c1cc(F)ccc1O` [B5], 0.375 ± 0.063 µM; under `O=C(Nc1ccc([N+](=O)[O-])cc1F)c1ccc(Cl)cc1O` [A1], 0.467 ± 0.131 µM.
Regarding `O=C(Nc1ccc([N+](=O)[O-])c(C(F)(F)F)c1)c1cc(Cl)ccc1O` [A16], the IC50 was found to be 0.556 ± 0.112 µM.
With `O=C(Nc1ccc([N+](=O)[O-])cc1Cl)c1cc(Cl)ccc1OS(=O)(=O)C(F)(F)F` [C8], the IC50 came to 0.252 ± 0.092 µM.

The test is the same for the next values; noted with them: Homo sapiens; observed, −log IC50, 22RV1 antiproliferation; read-out: Obs pIC50 (converted).
Take `O=C(Nc1ccc([N+](=O)[O-])c(C(F)(F)F)c1)c1cccc(Cl)c1` [C3]: the IC50 was 0.557 µM.
Take `N#Cc1cc(C(F)(F)F)ccc1NC(=O)c1cc(F)ccc1O` [B7]: the IC50 was 7.93 µM.
`COc1cc([N+](=O)[O-])ccc1NC(=O)c1cc(Cl)ccc1O` [A13]: the IC50 was 0.158 µM.
Same read-out and setting: the result for `O=C(Nc1ccc(C(F)(F)F)c(C(F)(F)F)c1)c1cc(Br)ccc1O` [B4] reads 0.307 µM; that for `COc1cc([N+](=O)[O-])ccc1NC(=O)c1ccc(Cl)cc1O` [A3], 0.714 µM.
With `O=C(Nc1ccc([N+](=O)[O-])cc1Cl)c1cc(Cl)ccc1O` [Niclosamide, reference compound], the IC50 is 0.284 µM.
Regarding `O=C(Nc1ccc([N+](=O)[O-])c(F)c1)c1cc(Cl)ccc1O` [A15], the IC50 is 0.28 µM.
Consider `CC(=O)Oc1ccc(Cl)cc1C(=O)Nc1ccc([N+](=O)[O-])cc1Cl` [C7], for which the IC50 is 0.481 µM.
As for `O=C(Nc1ccc(C(F)(F)F)cc1F)c1cc(F)ccc1O` [B6], the IC50 was 0.196 µM.
For `O=C(Nc1ccc([N+](=O)[O-])c(Cl)c1)c1ccc(Cl)cc1O` [A4], the IC50 was 0.713 µM.
`O=C(Nc1ccc([N+](=O)[O-])cc1F)c1cc(Cl)ccc1O` [A10]: the IC50 was 0.271 µM.
Still for that read-out and setting: under `O=C(Nc1ccc([N+](=O)[O-])c(C(F)(F)F)c1)c1cccc(Br)c1` [C5] stands 0.306 µM.
For the compound `O=C(Nc1ccc([N+](=O)[O-])cc1)c1cc(Cl)ccc1O` [A9], the IC50 is 0.581 µM.
In the case of `O=C(Nc1ccc(C(F)(F)F)cc1Cl)c1cc(F)ccc1O` [B5], the IC50 is 0.375 µM.
Regarding `O=C(Nc1ccc([N+](=O)[O-])cc1F)c1ccc(Cl)cc1O` [A1], the IC50 is 0.467 µM.
Same read-out and setting: under `O=C(Nc1ccc([N+](=O)[O-])c(C(F)(F)F)c1)c1cc(Cl)ccc1O` [A16] stands 0.556 µM; under `O=C(Nc1ccc([N+](=O)[O-])cc1Cl)c1cc(Cl)ccc1OS(=O)(=O)C(F)(F)F` [C8], 0.252 µM.

Staying with this test, now noted: enzalutamide-resistant cell lines LNCaP95 and 22RV1; SAR statements.
Consider `O=C(Nc1ccc([N+](=O)[O-])c(C(F)(F)F)c1)c1cccc(Cl)c1` [C3], for which the “antiproliferative activity, in words” value is reported as “retained”.
As for `CC(=O)Oc1ccc(Cl)cc1C(=O)Nc1ccc([N+](=O)[O-])cc1Cl` [C7], the “antiproliferative activity, in words” value is listed as “comparable activity”.
Consider `O=C(Nc1ccc(C(F)(F)F)cc1F)c1cc(F)ccc1O` [B6], for which the “antiproliferative activity, in words” value was “equivalent or improved anti-proliferation potency”.
For the compound `O=C(Nc1ccc([N+](=O)[O-])c(C(F)(F)F)c1)c1cccc(Br)c1` [C5], the “antiproliferative activity, in words” value is “retained”.
On the same count and under the same terms, under `O=C(Nc1ccc([N+](=O)[O-])cc1Cl)c1cc(Cl)ccc1OS(=O)(=O)C(F)(F)F` [C8] stands “equivalent or improved anti-proliferation potency; also recorded: slightly improved”.

The record behind these values is PMC10222209 (Pharmaceuticals, 2023).
